How the values were obtained:
HMGB3 [1] = target: T1, HMGB3 (Arabidopsis thaliana, UniProt P93047); assay: photoaffinity crosslinking, immunoblot with anti-SA antibody; assay type: binding; conditions: 50 uM 4AzSA, PBS, on ice, 254 nm UV 30 mJ; covalent
T1 construct: ORF in pET30 Xa/LIC, 6xHis-tagged, E. coli BL21, Ni-NTA and Superdex 200 purified; ABRC ORF clone
T1 sequence (P93047 1-141): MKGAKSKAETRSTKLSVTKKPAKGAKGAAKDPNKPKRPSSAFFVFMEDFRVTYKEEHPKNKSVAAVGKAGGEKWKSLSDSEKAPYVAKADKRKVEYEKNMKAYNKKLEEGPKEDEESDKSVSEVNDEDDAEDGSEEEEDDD

HMGB3 [2] = target: T1, HMGB3; assay: SPR competition on 3AESA chip; competition of 4AzSA photoaffinity crosslinking; assay type: binding; conditions: 1 uM HMGB3 in SPR; 50 uM 4AzSA in PBS for crosslinking; competitive

Compound | photoaffinity crosslinking, immunoblot with anti-SA antibody (HMGB3 [1]) | SPR competition on 3AESA chip; competition of 4AzSA photoaffinity crosslinking (HMGB3 [2])
[N-]=[N+]=Nc1ccc(C(=O)O)c(O)c1 [4AzSA, 4-azido SA] | HMGB3 was effectively crosslinked to 4AzSA by UV irradiation | –
O=C(O)c1ccccc1O [SA, salicylic acid] | – | this binding was competed in the presence of increasing concentrations of SA

— PMC4805298, “Activation of Plant Innate Immunity by Extracellular High Mobility Group Box 3 and Its Inhibition by Salicylic Acid” (PLoS Pathogens, 2016)
